US20110014174A1, “Lysozyme, A Novel Vasodilator of Sepsis that can be inhibited by a Peroxidase and Hydroxyl Radical Scavengers” (UNIVERSITY OF MANITOBA, priority 2007, published 2011)
“Also recorded” adds a separate entry of the source.

Test system: Lzm-S-induced carotid artery vasodilation
Assay: Prevention of Lzm-S-induced vasodilation by pretreatment agents in the carotid artery ring preparation
Parameters: species or system canine
Conditions: comparison of hydroxyl radical scavengers with peroxidase

SMILES	blockade of Lzm-S-induced vasodilation
Oc1ccc(O)cc1 [hydroquinone]	60%
OC[C@@H](O)[C@@H](O)[C@H](O)[C@H](O)CO [mannitol]	60%

Same assay, conditions: pretreatment with the agent; human Lzm-S 6.7×10^−7 mol/L; phenylephrine contracted ring

SMILES	inhibition of Lzm-S-induced vasodilation (words)
Nc1ccncc1 [4-aminopyridine]	none of these inhibitors prevented Lzm-S's vasodilatory response
O=C(O)CCC/C=C\C/C=C\C/C=C\C/C=C\CCCCCO [20-hydroxyeicosatetraenoic acid]	none of these inhibitors prevented Lzm-S's vasodilatory response
CCN(CC)C(=S)S [DECTA, diethyldithiocarbamic acid]	neither DECTA (10^−2 mol/L), deferoxamine methanesulfonate salt (10^−2 mol/L), nor the reducing agents N-acetylcysteine (10^−3 mol/L), ascorbic acid (10^−4 mol/L), and reduced-glutathione (10^−3 mol/L) were found to inhibit Lzm-S-induced vasodilation
[Cl-].[K+] [KCl]	none of these inhibitors prevented Lzm-S's vasodilatory response
O=C1C(Nc2ccccc2)=CC(=O)c2ncccc21 [LY 83583, 6-anilino-5,8-quinolinequinone]	prevented lysozyme induced vasdodilation; also recorded: found to inhibit Lzm-S's effect
CC(=O)N[C@@H](CS)C(=O)O [N-acetylcysteine]	neither DECTA (10^−2 mol/L), deferoxamine methanesulfonate salt (10^−2 mol/L), nor the reducing agents N-acetylcysteine (10^−3 mol/L), ascorbic acid (10^−4 mol/L), and reduced-glutathione (10^−3 mol/L) were found to inhibit Lzm-S-induced vasodilation
O=c1onc2cnc3ccccc3n12 [ODQ, 1H-[1,2,4]oxadiazolo[4,3-a]quinoxalin-1-one]	prevented lysozyme induced vasdodilation; also recorded: found to inhibit Lzm-S's effect
Nc1ncnc2c1ncn2C1CCCO1 (centres unmarked) [SQ 22, 536]	none of these inhibitors prevented Lzm-S's vasodilatory response
O=C1O[C@H]([C@@H](O)CO)C(O)=C1O [ascorbic acid]	neither DECTA (10^−2 mol/L), deferoxamine methanesulfonate salt (10^−2 mol/L), nor the reducing agents N-acetylcysteine (10^−3 mol/L), ascorbic acid (10^−4 mol/L), and reduced-glutathione (10^−3 mol/L) were found to inhibit Lzm-S-induced vasodilation
CN1[C@@H]2CC[C@H]1C[C@@H](OC(=O)C(CO)c1ccccc1)C2 (some centres unmarked) [atropine]	none of these inhibitors prevented Lzm-S's vasodilatory response
CC(=O)N[C@H]1[C@H](O[C@H]2[C@H](O)[C@@H](NC(C)=O)C(O)O[C@@H]2CO)O[C@H](CO)[C@@H](O)[C@@H]1O (some centres unmarked) [chitobiose, N,N′-diacetylchitobiose]	did not block Lzm-S's vasodilatory response
CC(=O)N[C@H]1[C@H](O[C@H]2[C@H](O)[C@@H](NC(C)=O)C(O)O[C@@H]2CO)O[C@H](CO)[C@@H](O[C@@H]2O[C@H](CO)[C@@H](O)[C@H](O)[C@H]2NC(C)=O)[C@@H]1O (some centres unmarked) [chitotriose, N,N′,N″-triacetylchitotriose]	did not block Lzm-S's vasodilatory response
CN(C)CCOC(c1ccccc1)c1ccccc1.Cl [dipheniramine hydrochloride]	none of these inhibitors prevented Lzm-S's vasodilatory response
Oc1ccc(O)cc1 [hydroquinone]	inhibited the vasodilatory effect of lysozyme
OC[C@@H](O)[C@@H](O)[C@H](O)[C@H](O)CO [mannitol]	inhibited the vasodilatory effect of lysozyme; also recorded: inhibitory effect
CN(C)c1ccc2nc3ccc(=[N+](C)C)cc-3sc2c1 [methylene blue]	inhibited the effect of lysozyme; also recorded: prevented lysozyme induced vasdodilation; also recorded: found to inhibit Lzm-S's effect
CC(C)NCC(O)COc1cccc2ccccc12 (centres unmarked) [propranolol]	none of these inhibitors prevented Lzm-S's vasodilatory response

Same assay, conditions: pretreatment with the agent; human Lzm-S 6.7×10^−7 mol/L; phenylephrine contracted ring; listed as hydroxyquinone

SMILES	inhibition of Lzm-S-induced vasodilation (words)
Oc1ccc(O)cc1 [hydroquinone]	inhibitory effect
